15 molecules from US5695751A, “Enhancing delivery of large neutral amino acid drugs” (Cornell Research Foundation, Inc., priority 1995, dated 1997) can be followed below.

Experiment [1] relates to idiopathic Parkinson's disease. In words: Patient with idiopathic Parkinson's disease, Examples XVI and XXIII. The class given is in vivo, human patient. On the procedure: A person presenting with symptoms of tremor, stiff hands, and funny ("cogwheel") gait is diagnosed by clinical examination as having idiopathic Parkinson's disease. Dosage of levodopa/carbidopa of 400/100 mg/day are built up to.

Another experiment concerns L-amino acid oxidase. It counts as biochemical, snake venom. The conditions noted are these: substrate of L-amino acid oxidase, pH 7.5, 37° C. On the procedure: Km and Vmax were determined by plotting 1/rate vs. 1/[substrate] to give a line which intersects the Y-axis at 1/Vmax and intersects the X-axis at -1/Km. The reaction mixtures utilized contained in a final volume of 1.0 ml, the following: 100 mM glycylglycine buffer, pH 7.5, 0.3 mM NADH, 2 mM α-ketoglutarate, 0.5 mM ADP, 20 I.U. glutamate dehydrogenase (Sigma Chemicals, St. Louis, Mo.), and L-amino acid substrate or melphalan at concentrations ranging from 0.1 to 16 mM. The temperature was 37° C. In this system L-amino acid oxidase converted L-amino acid or melphalan to the corresponding α-keto acid and ammonia; ammonia then reacted stoichiometrically with α-ketoglutarate and NADH in a reaction catalyzed by glutamate dehydrogenase to give […] and glutamate. The oxidation of NADH to NAD^+ is accompanied by a decrease in OD340, which was monitored and used to determine the amount of ammonia made available for reaction (1 mM NADH converted to NAD^+ causes a ΔOD340 of 6.2 in the 1 cm cuvettes used).

The subject of experiment [2] is pineoblastoma brain tumor. Put plainly: Patient with pineoblastoma brain tumor, Example XVII. The class given is in vivo, human patient. As to the method:
A person presents with symptoms of headaches, inability to look upward and vomiting and is diagnosed by magnetic resonance imaging as having pineoblastoma brain tumor. Daily treatment consists of administration of 35 units/ml of plasma of L-amino acid oxidase intravenously followed at 12 hours by intravenous administration of 0.3 mg/kg of L-DON.
When L-buthionine-S-sulfoximine is administered orally 3 hours before each administration of L-DON, the dosage of L-DON can be reduced to 0.1 mg/kg with the same results.

Experiment [3] deals with medulloblastoma brain tumor. In words: Patient with medulloblastoma brain tumor, Example XVIII. The class given is in vivo, human patient. The conditions noted are these: LOX 35 units/ml of plasma i.v., 12 hours later L-DON 0.3 mg/kg i.v. As to the method:
A patient presents with symptoms of headaches, vomiting and ataxic gait and is diagnosed by magnetic resonance imaging as having medulloblastoma brain tumor. Daily treatment consists of administration of 35 units/ml of plasma of L-amino acid oxidase intravenously followed in 12 hours by administration of 0.3 mg/kg of L-DON intravenously.

Another experiment deals with choriocarcinoma. Put plainly: Patient with choriocarcinoma, Example XXII. The class given is in vivo, human patient. To be noted: LOX 35 units/ml of plasma i.v., 5 hours later L-alanosine 1000 mg/m^2 i.v. On the procedure: A patient presents with symptoms of headaches, vomiting and double vision and is diagnosed by magnetic resonance imaging as having choriocarcinoma. Daily treatments consist of 35 units/ml of plasma of L-amino acid oxidase intravenously followed in 5 hours by administration of 1000 mg/m^2 of L-alanosine intravenously.

Experiment [4] concerns supratentorial high grade glioma brain tumor. In words: Patient with supratentorial high grade glioma, radiation therapy, Example XXIV. The conditions noted are these: LOX 35 units/ml of plasma i.v., 3 hours later oral L-buthionine-S-sulfoximine, 5 days, then 5400 cGy. It counts as in vivo, human patient. As to the method: A patient is diagnosed by magnetic resonance imaging as having supratentorial high grade glioma brain tumor. Daily treatment consists of 35 units/ml of plasma of L-amino acid oxidase administered intravenously followed in 3 hours by administration orally of L-buthionine-S-sulfoximine. After 5 days, radiation therapy is implemented using a linear accelerator at a total dose of 5400 cGy at a rate of 180 cGY/day in 30 fractions over 30 days. Survival 10% longer than the average survival in the case of radiation therapy of glioma is noted.

The test system of a further experiment is glioblastoma multiforme. In words: Patient with glioblastoma multiforme, Example XIX. The class given is in vivo, human patient. To be noted: LOX 35 units/ml of plasma i.v., 10 hours later acivicin 30 mg/kg i.v. As to the method:
A patient presents with symptoms of headaches, seizures and left sided weakness and is diagnosed by magnetic resonance imaging as having glioblastoma multiforme. Daily treatment consists of administration of 35 units/ml of plasma of L-amino acid oxidase intravenously followed in 10 hours by administration of 30 mg/kg of acivicin intravenously.

Another experiment relates to germinoma. In words: Patient with germinoma, Example XX. It counts as in vivo, human patient. The conditions noted are these: LOX 35 units/ml of plasma i.v., 5 hours later acivicin 30 μg/kg i.v. On the procedure: A patient presents with symptoms of headaches, vomiting and double vision and is diagnosed by magnetic resonance imaging as having a germinoma. Daily treatment consists of 35 units/ml of plasma of L-amino acid oxidase intravenously followed in 5 hours by administration of 30 μg/kg of acivicin intravenously.

The subject of a further experiment is anaplastic astrocytoma. In words: Patient with anaplastic astrocytoma, Example XXI. The class given is in vivo, human patient. The conditions noted are these: LOX 35 units/ml of plasma i.v., 5 hours later azaserine 10 μg/kg i.v. On the procedure: A patient presents with symptoms of headaches, seizures and vomiting and is diagnosed by magnetic resonance imaging as having anaplastic astrocytoma. Daily treatments consist of 35 units/ml of plasma of L-amino acid oxidase intravenously followed in 5 hours by administration of 10 μg/kg of azaserine intravenously.

In turn, `N[C@@H](Cc1cc(CP(=O)(O)O)cc(-c2cccc3ccccc23)c1)C(=O)O` [5-(1-naphthyl)-3-(phosphonomethyl) phenylalanine] came in with a Tremor suppression lasting in experiment [1] (8 mg/kg orally 12 hours after LOX 25 units/ml of plasma i.v.) of 12 h. What is called Vmax is the rate approached at saturating substrate. On to `C[C@H](N)C(=O)O` [L-Alanine], for which, in the experiment on L-amino acid oxidase, the maximal velocity (Vmax) turned out to be 0 µmol/min/mg. `[N-]=[N+]=CC(=O)CC[C@H](N)C(=O)O` [L-DON, 6-diazo-5-oxo-L-norleucine]: the “dosage of L-DON giving the same results” value in [2] (L-buthionine-S-sulfoximine orally 3 hours before each L-DON) came out at 0.1 mg/kg. Moreover, in [2] (LOX 35 units/ml of plasma i.v., 12 hours later L-DON 0.3 mg/kg i.v., daily), the “amelioration of symptoms after 7 days” value is “ability to look upward and less vomiting”. For the same molecule, the “symptoms after 7 days of treatment” value in experiment [3] is recorded as “amelioration of symptoms”. Usually Km stands for the substrate concentration at which the rate is half of its maximum. Regarding `CC[C@H](C)[C@H](N)C(=O)O` [L-Isoleucine], in the experiment on L-amino acid oxidase, the Michaelis-Menten constant (Km) was determined as 2050 µM and the Vmax was 33 µmol/min/mg. For `CC(C)C[C@H](N)C(=O)O` [L-Leucine], in the experiment on L-amino acid oxidase, the Km was 600 µM and the maximal velocity (Vmax) stood at 100 µmol/min/mg.

With `CSCC[C@H](N)C(=O)O` [L-Methionine], in the experiment with L-amino acid oxidase, the Michaelis-Menten constant (Km) was determined as 470 µM and the Vmax is 70 µmol/min/mg.

`N[C@@H](Cc1ccccc1)C(=O)O` [L-Phenylalanine]: in the experiment on L-amino acid oxidase, the Km turned out to be 130 µM and the Vmax worked out at 33 µmol/min/mg. The matching figures for `N[C@@H](Cc1c[nH]c2ccccc12)C(=O)O` [L-Tryptophan]: 220 µM and 43 µmol/min/mg.

Regarding `N[C@@H](Cc1ccc(O)cc1)C(=O)O` [L-Tyrosine], in the experiment with L-amino acid oxidase, the Michaelis-Menten constant (Km) was 130 µM and the Vmax was 37 µmol/min/mg.

`CC(C)[C@H](N)C(=O)O` [L-Valine]: in the experiment on L-amino acid oxidase, the Km was 19000 µM and the Vmax was 13 µmol/min/mg. For the molecule `N[C@@H](CN(O)N=O)C(=O)O` [L-alanosine], in the experiment on choriocarcinoma, the “symptoms after 7 days of treatment” value is “amelioration of symptoms”. For `CCCC[S@](=N)(=O)CC[C@H](N)C(=O)O` [L-buthionine-S-sulfoximine], the “Survival longer than the average survival with radiation therapy of glioma” value in experiment [4] was 10%. Turning to `N[C@H](C(=O)O)[C@@H]1CC(Cl)=NO1` [acivicin, L-[αS,5S]-α-amino-3-chloro-4,5-dihydro-5-isoxazoleacetic acid], the “symptoms after 7 days of treatment” value in the experiment with glioblastoma multiforme and with germinoma was “amelioration of symptoms” in each case. With `[N-]=[N+]=CC(=O)OC[C@H](N)C(=O)O` [azaserine, O-diazoacetyl-L-serine], in the experiment with anaplastic astrocytoma, the “symptoms after 7 days of treatment” value was “amelioration of symptoms”.

Take levodopa/carbidopa: in experiment [1] (levodopa/carbidopa 400/100 mg/day, LOX 25 units/ml of plasma i.v. 15 hours before), the “symptoms of Parkinson's disease” value is “Lessening of symptoms”.
